Reference: US9399635B2, “Pyrazole derivative” (GREEN TECH CO., LTD., priority 2011, dated 2016)

Tests used:
[1] = biological target: T1, recombinant human β-secretase (Homo sapiens, UniProt P56817); assay: Determination of β-secretase inhibitory activity (BACE-1 FRET assay Kit); format: biochemical; conditions: recombinant human β-secretase, fluorescent substrate peptide, 1 hour; read-out: IC50 (μM) Test example 2 (β-secretase inhibitory activity)
T1 construct: purchased Invitrogen
Procedure: Pharmacological Test Example 2: Determination of β-Secretase Inhibitory Activity
The β-secretase inhibitory activity was measured with BACE-1 FRET assay Kit (Invitrogen). The test compounds were prepared using DMSO at 30-fold of their final concentrations and dissolved so that the DMSO concentration would be 10%. To each of the solutions, an equal volume of a recombinant human β-secretase (1 U/mL) dissolved in the assay buffer and an equal volume of fluorescent substrate peptide (2.5 nM) were added and the solutions were left to stand for 1 hour. The fluorescence intensity was measured with a fluorescence plate reader (excitation wavelength: 545 nm; emission wavelength: 590 nm).
The final concentration of each compound at the time of measurement was set at 0.1, 0.3, 1, 3, and 10 μM, at 0.3, 1, 3, 10, and 30 μM, or at 1, 3, 10, 30, and 100 μM.

[2] = biological target: recombinant three-repeat microtubule-binding domain (3R-MBD) of tau protein (Homo sapiens, UniProt P10636); assay: Determination of tau aggregation inhibitory activity (heparin-induced, thioflavin T fluorescence; electron microscope); format: biochemical
Procedure: Pharmacological Test Example 1: Determination of Tau Aggregation Inhibitory Activity
A recombinant three-repeat microtubule-binding domain (3R-MBD) of tau protein was expressed in E. coli and was purified and used for the experiment. The purified tau solution was diluted with a 50 mM Tris-HCl buffer (pH 7.6) to a final concentration of 10 μM. The test compounds were prepared using dimethylsulfoxide (DMSO) at 20-fold of their final concentrations and added to the plate so that the DMSO concentration would be 5%. Heparin was added to the plate so that the final concentration would be 10 μM and the plate was left to stand at 37° C. for 16 hours. Thioflavin T was added to the plate so that the concentration would be 10 μM and the fluorescence intensity was measured with a fluorescence plate reader (PerkinElmer, Inc.) (excitation wavelength: 440 nm; emission wavelength: 480 nm).
The final concentration of each compound at the time of measurement was set at 0.1, 0.3, 1, 3, and 10 μM. The sample to which only DMSO was added was used as a negative control and its fluorescence intensity was taken as 0% inhibitory activity.
The samples were placed on a grid and washed with distilled water. A 1 mM phosphotungstic acid aqueous solution was added to the samples. The samples were washed, dried overnight, and observed.

[3] = system: Aβ 1-42 in the brain of APPswe/PS1dE9 Tg mice; assay: Aβ aggregation inhibitory activity and Aβ production inhibitory activity in mice with oral administration (brain Aβ 1-42 ELISA); format: in vivo; conditions: oral 25 or 50 mg/kg bw/day, four weeks (FIG. 3)
Procedure: Pharmacological test example 5: Determination of Aβ aggregation inhibitory activity and Aβ production inhibitory activity in mice with oral administration
To APPswe/PS1dE9 Tg mice (male, 10 to 12 months old, n=8 to 10), the compound of Example 2 was orally administered and the concentration of Aβ in the brain was measured. The administration vehicle was an 80% PEG 400 aqueous solution. The dose volume was 10 mL/kg bw/day and the dose was adjusted to be 25 mg/kg bw/day or 50 mg/kg bw/day. To Vehicle group, 10 mL/kg bw/day of an 80% PEG 400 aqueous solution was administered. Administration was performed with an oral feeding tube (Fuchigami Kikai Company) by gavage and continued for four weeks. After termination of the administration, the mice were sacrificed under pentobarbital anesthesia and the brain was harvested. The brain was homogenized after addition of a 10-fold volume of a phosphoric acid buffer (pH 7.4) and the homogenate was centrifuged at 4° C., 16,000 g for 1 hour. The centrifugal supernatant was used as a soluble protein sample. […] An amount of 100 μL of a reaction stop solution was added to stop the chromogenic reaction and the absorbance was measured at 450 nm with a microplate reader (Bio-Rad). The Aβ concentration was determined from the standard curve produced from the measured values of the standard curve dilution series.

[4] = system: sarcosyl-insoluble tau in the brain of tau N279K Tg mice; assay: Tau aggregation inhibitory activity in mice with oral administration (brain sarcosyl-insoluble tau ELISA); format: in vivo; conditions: oral 10, 20, or 40 mg/kg bw/day, four weeks (FIG. 4)
Procedure: Pharmacological test example 6: Determination of tau aggregation inhibitory activity in mice with oral administration
To tau N279K Tg mice (male, 8 months old, n=8), the compound of Example 2 was orally administered and the tau concentration in the brain was measured. The administration vehicle was an 80% PEG 400 aqueous solution. The dose volume was 10 mL/kg bw/day and the dose was adjusted to be 10, 20, or 40 mg/kg bw/day. To Vehicle group, 10 mL/kg bw/day of an 80% PEG 400 aqueous solution was administered. To Positive control compound group, methylene blue (MB) adjusted to be 40 mg/kg bw/day was administered. Administration was performed with an oral feeding tube (Fuchigami Kikai Company) by gavage and continued for four weeks. After termination of the administration, the mice were sacrificed under pentobarbital anesthesia and the brain was harvested. The brain was homogenized after addition of a 5-fold volume of a high salt buffer (0.8 M NaCl, 1 mM EGTA, 10 mM Tris-HCl, 10% sucrose). […] An amount of 100 μL of a reaction stop solution was added to stop the chromogenic reaction and the absorbance was measured at 450 nm with a microplate reader. The tau concentration was determined from the standard curve produced from the measured values of the standard curve dilution series.

Chain of recombinant three-repeat microtubule-binding domain (3R-MBD) of tau protein (P10636 186-279 isoform P10636-2 limits assumed): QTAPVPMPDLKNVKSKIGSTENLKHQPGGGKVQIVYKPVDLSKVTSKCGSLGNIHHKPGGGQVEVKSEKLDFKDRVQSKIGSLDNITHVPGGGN
T1 sequence (P56817 46-501): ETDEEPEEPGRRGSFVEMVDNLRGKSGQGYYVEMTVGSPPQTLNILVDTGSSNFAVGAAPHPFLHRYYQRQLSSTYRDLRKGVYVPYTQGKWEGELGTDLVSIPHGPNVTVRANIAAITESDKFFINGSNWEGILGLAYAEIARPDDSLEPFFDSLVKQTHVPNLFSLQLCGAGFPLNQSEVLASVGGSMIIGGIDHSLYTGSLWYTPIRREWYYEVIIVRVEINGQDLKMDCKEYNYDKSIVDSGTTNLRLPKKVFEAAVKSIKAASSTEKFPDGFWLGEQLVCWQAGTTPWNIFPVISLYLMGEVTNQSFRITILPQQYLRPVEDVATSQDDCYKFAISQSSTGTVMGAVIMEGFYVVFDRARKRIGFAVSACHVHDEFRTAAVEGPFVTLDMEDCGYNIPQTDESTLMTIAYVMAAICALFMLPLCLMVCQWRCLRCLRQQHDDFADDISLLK

**Q.** `COc1cc(OCc2ccccn2)ccc1/C=C/c1cc(/C=C/c2ccc3cc[nH]c3c2)[nH]n1` [Example 2, 3-[(1E)-2-(1H-indol-6-yl)ethenyl]-5-[(1E)-2-[2-methoxy-4-(2-pyridylmethoxy)phenyl]ethenyl]-1H-pyrazole] was tested. Which IC50 [1] did it give?
**A.** 3 µM

**Q.** What about the “tau aggregate formation observed with an electron microscope” value ([2]; 0.1 μM and 1 μM, compared with DMSO only (FIG. 1)) of the same molecule?
**A.** less tau aggregate formation

**Q.** What about the IC50 ([2]; 3R-MBD tau 10 μM, heparin 10 μM, 37° C. for 16 hours, thioflavin T, read-out: IC50 (μM) Test example 1 (tau aggregation inhibitory activity)) of the same molecule?
**A.** 0.92 µM

**Q.** And the “amount of insoluble Aβ 1-42 in the brain” value [3]?
**A.** decreased in a dose-dependent manner

**Q.** And the “amount of soluble Aβ 1-42 in the brain” value [3]?
**A.** decreased in a dose-dependent manner

**Q.** And the “amount of the sarcosyl-insoluble tau in the brain” value [4]?
**A.** decreased in a dose-dependent manner
